Results on 3 molecules are retold here after patent publication US10669284B2, “Fused thiazolopyrimidine derivatives as MNKS inhibitors” (LIFEARC, priority 2015, dated 2020).

For orientation: inhibition means how much of the control response was suppressed.

For one experiment, the target named is MAPK8 (Homo sapiens, UniProt P45983). Kind of experiment: Kinase selectivity screen MAPK8. Conditions: read-out: % inhibition of MAPK8.
The target in a further experiment is T1, BMX (Homo sapiens, UniProt P51813).
T1 sequence (P51813 1-675): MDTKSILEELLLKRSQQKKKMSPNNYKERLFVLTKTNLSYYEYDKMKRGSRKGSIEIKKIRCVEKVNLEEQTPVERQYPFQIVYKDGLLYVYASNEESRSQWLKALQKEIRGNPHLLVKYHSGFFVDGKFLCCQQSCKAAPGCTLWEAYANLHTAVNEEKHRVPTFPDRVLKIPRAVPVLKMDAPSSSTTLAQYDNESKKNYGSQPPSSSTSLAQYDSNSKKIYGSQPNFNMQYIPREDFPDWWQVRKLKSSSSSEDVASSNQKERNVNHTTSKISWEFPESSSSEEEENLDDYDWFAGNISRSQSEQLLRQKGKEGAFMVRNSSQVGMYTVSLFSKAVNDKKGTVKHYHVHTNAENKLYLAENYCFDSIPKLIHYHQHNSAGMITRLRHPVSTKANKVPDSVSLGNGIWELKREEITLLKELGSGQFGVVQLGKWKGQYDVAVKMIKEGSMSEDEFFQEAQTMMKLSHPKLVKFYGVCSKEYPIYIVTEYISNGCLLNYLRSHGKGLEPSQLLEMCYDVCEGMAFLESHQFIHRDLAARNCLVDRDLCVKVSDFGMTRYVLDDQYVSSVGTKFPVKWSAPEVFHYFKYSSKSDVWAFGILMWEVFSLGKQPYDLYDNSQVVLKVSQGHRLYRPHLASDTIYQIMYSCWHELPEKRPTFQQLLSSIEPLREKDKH
Kind of experiment: Kinase selectivity screen BMX. Conditions: read-out: % inhibition of BMX.

Another experiment concerns the target T2, STK11 (Homo sapiens, UniProt Q15831).
T2 sequence (Q15831 1-433): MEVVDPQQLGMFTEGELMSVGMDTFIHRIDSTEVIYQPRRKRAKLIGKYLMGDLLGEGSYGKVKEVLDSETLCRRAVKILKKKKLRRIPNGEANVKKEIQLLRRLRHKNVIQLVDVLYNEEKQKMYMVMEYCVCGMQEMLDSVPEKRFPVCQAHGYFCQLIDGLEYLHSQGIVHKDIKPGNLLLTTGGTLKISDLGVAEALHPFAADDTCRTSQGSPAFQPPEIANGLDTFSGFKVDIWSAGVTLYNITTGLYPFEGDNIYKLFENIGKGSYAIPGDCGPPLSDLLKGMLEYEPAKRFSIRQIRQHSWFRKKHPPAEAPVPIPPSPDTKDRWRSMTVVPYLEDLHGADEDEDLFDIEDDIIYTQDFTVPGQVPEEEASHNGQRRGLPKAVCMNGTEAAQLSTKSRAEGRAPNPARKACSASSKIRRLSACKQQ
T2 sequence (Q7RTN6 1-431 partner): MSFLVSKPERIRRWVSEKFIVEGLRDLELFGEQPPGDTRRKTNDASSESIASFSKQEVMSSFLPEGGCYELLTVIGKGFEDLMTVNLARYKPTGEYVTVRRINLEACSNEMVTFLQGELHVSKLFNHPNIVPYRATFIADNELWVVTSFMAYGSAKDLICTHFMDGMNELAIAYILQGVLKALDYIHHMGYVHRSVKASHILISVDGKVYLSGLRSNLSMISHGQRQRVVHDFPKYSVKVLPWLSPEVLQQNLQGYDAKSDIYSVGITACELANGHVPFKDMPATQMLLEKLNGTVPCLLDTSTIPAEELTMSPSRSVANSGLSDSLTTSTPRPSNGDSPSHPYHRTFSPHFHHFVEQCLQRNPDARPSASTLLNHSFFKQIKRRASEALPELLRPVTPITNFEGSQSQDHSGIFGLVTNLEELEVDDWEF
T2 sequence (Q9Y376 1-341 partner): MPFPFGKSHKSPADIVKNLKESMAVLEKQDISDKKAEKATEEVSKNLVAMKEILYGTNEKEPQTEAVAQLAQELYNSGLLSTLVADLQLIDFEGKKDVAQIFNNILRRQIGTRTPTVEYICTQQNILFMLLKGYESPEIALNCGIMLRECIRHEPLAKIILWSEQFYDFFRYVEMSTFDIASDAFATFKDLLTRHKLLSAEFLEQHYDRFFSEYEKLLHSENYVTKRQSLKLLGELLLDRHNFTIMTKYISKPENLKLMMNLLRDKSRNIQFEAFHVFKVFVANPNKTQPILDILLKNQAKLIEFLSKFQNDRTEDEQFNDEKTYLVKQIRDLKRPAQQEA
Briefly: Kinase selectivity screen STK11. Conditions: read-out: % inhibition of STK11.

For the next experiment, the target named is PTK6 (Homo sapiens, UniProt Q13882). Briefly: Kinase selectivity screen PTK6. Conditions: read-out: % inhibition of PTK6.
PTK6, sequence (Q13882 whole entry, species assumed): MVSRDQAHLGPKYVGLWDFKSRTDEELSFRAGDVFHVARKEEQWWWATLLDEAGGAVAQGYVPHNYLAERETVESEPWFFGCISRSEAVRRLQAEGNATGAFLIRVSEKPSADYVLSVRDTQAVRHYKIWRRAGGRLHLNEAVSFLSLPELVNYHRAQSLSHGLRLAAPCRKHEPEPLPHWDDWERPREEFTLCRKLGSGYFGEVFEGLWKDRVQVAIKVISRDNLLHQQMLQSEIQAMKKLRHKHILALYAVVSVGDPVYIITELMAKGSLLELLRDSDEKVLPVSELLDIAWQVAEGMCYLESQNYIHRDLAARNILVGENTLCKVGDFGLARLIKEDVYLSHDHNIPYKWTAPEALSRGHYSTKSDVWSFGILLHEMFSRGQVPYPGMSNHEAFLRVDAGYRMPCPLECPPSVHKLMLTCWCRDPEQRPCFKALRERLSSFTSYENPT
Another experiment deals with BTK (Homo sapiens, UniProt Q06187). Kind of experiment: Kinase selectivity screen BTK. Conditions: read-out: % inhibition of BTK.
BTK, sequence (Q06187 whole entry, species assumed): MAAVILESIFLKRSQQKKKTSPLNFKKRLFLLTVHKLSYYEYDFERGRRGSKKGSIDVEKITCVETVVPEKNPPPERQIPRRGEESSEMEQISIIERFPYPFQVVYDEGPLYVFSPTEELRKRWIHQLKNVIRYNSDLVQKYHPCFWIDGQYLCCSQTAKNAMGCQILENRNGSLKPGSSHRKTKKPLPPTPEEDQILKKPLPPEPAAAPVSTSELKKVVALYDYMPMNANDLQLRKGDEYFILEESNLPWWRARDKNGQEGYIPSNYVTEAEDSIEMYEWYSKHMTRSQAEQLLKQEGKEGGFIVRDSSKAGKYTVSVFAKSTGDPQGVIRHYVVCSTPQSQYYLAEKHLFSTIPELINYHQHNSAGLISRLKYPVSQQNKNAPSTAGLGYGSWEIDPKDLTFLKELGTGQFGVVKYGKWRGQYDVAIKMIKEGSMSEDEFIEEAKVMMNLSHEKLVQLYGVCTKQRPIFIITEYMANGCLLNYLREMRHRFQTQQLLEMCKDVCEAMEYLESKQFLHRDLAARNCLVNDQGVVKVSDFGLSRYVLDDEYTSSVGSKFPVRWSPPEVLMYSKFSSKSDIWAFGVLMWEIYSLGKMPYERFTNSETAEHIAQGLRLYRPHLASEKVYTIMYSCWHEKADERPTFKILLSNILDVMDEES
The next experiment deals with PIM2 (Homo sapiens, UniProt Q9P1W9). Kind of experiment: Kinase selectivity screen PIM2. Conditions: read-out: % inhibition of PIM2.
PIM2, sequence (Q9P1W9 whole entry, species assumed): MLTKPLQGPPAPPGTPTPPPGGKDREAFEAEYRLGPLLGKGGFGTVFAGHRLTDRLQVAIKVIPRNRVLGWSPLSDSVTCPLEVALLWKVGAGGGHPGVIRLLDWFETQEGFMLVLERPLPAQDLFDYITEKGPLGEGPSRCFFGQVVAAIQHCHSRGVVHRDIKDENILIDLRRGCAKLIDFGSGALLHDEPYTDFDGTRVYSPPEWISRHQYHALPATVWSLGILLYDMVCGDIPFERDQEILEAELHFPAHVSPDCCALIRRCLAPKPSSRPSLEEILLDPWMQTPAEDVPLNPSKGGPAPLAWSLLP
The target in a further experiment is PAK1 (Homo sapiens, UniProt Q13153). Kind of experiment: Kinase selectivity screen PAK1. Particulars: read-out: % inhibition of PAK1.
PAK1, sequence (Q13153 whole entry): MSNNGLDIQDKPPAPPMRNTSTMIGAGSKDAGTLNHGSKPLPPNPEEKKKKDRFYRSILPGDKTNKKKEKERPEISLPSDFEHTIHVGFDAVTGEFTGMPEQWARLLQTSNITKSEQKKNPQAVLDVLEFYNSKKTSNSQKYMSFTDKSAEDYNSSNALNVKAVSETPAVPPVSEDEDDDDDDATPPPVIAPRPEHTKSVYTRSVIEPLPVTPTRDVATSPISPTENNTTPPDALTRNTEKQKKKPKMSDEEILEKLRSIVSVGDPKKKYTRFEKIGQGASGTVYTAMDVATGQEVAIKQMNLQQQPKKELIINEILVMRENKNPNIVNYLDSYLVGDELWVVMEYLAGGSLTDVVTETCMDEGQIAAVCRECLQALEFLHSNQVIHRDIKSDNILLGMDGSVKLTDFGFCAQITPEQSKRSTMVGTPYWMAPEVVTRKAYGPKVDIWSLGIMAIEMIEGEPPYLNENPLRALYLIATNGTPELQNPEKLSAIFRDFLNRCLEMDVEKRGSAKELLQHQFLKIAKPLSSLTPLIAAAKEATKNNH
For a further experiment, the target named is BLK (Homo sapiens, UniProt P51451). Kind of experiment: Kinase selectivity screen BLK. Conditions: read-out: % inhibition of BLK.
BLK, sequence (P51451 whole entry, species assumed): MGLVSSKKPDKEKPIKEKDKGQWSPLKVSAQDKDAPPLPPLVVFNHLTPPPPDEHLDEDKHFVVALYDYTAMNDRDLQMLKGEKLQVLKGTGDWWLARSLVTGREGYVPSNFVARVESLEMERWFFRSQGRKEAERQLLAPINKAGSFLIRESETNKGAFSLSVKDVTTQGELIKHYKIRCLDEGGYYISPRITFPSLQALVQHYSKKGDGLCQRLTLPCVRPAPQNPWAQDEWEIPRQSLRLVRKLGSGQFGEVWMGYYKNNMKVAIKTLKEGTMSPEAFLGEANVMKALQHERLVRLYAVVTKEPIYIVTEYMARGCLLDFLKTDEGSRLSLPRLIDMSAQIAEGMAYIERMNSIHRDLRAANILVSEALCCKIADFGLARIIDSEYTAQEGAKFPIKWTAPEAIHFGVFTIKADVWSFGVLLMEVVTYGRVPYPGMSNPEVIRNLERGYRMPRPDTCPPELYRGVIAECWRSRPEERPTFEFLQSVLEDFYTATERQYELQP
The target in the next experiment is STK10 (Homo sapiens, UniProt O94804). Briefly: Kinase selectivity screen STK10. Conditions: read-out: % inhibition of STK10.
STK10, sequence (O94804 whole entry, species assumed): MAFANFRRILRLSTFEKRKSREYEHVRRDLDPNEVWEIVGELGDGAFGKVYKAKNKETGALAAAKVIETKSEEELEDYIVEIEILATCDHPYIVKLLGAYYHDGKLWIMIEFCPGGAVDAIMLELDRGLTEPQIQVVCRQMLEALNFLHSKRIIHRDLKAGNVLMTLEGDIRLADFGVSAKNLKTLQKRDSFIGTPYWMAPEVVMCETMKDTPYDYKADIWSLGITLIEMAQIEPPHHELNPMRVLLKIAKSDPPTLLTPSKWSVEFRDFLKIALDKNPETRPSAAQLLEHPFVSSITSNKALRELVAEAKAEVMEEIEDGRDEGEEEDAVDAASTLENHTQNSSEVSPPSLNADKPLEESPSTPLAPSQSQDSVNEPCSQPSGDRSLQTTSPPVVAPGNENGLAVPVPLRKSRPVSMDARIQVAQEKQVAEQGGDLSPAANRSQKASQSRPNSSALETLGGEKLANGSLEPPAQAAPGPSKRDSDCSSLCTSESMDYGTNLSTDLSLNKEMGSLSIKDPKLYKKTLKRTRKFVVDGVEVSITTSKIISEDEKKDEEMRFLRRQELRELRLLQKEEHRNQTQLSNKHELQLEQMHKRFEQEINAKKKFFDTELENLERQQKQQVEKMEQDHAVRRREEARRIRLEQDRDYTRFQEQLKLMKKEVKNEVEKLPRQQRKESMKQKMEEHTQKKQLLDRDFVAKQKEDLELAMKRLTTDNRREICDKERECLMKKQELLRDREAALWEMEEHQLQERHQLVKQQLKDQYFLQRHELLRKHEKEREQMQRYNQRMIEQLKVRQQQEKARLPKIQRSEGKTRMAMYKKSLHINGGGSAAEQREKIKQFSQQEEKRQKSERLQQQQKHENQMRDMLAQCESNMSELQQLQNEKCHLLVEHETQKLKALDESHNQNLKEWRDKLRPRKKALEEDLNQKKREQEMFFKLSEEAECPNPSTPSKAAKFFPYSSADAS
A further experiment concerns the target LCK (Homo sapiens, UniProt P06239). Kind of experiment: Kinase selectivity screen LCK. Conditions: read-out: % inhibition of LCK.

LCK, sequence (P06239 whole entry, species assumed): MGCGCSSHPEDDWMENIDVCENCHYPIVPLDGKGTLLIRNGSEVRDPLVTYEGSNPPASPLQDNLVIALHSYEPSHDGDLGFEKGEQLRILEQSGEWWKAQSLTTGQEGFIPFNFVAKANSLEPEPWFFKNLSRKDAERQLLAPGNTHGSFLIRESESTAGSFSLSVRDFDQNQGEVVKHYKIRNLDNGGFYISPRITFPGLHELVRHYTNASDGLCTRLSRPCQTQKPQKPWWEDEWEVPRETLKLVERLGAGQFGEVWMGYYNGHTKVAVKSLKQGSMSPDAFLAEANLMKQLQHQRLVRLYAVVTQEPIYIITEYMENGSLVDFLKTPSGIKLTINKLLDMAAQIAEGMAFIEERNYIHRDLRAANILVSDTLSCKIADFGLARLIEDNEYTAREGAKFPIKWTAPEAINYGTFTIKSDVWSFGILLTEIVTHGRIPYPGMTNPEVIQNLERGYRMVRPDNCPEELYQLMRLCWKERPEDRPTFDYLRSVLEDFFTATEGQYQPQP
MAPK8, sequence (P45983 whole entry, species assumed): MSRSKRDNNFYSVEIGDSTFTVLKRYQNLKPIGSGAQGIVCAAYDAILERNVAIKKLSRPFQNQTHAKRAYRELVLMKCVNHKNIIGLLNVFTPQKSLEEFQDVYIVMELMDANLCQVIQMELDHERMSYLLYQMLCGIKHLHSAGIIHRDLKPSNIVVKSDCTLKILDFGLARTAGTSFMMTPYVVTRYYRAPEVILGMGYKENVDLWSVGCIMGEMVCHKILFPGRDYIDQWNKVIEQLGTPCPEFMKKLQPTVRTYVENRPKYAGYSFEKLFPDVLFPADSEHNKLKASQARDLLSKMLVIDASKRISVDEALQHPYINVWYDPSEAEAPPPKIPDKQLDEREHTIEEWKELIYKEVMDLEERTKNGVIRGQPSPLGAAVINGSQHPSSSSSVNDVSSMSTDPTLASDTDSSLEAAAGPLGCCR

On to `O=C(NCC1CCNCC1)c1nc2c(N3CCc4cc(F)ccc43)ncnc2s1` [Example 58, 7-(5-fluoroindolin-1-yl)-N-(4-piperidylmethyl)thiazolo[5,4-d]pyrimidine-2-carboxamide], for which the inhibition at 1 µM at MAPK8 amounted to 1%; on BMX, 0%; on STK11 it was 7%; at PTK6, 0%; at BTK it was 9%; at PIM2, 13%. For the same molecule, the inhibition at 1 µM on PAK1 turned out to be 9%; on BLK, 0%; at STK10 it was 71%; on LCK, 0%.

On to `CC(C)Oc1cc(F)ccc1Nc1ncnc2sc(C(=O)NCC3CCNCC3)nc12` [Example 10, 7-(4-fluoro-2-isopropoxy-anilino)-N-(4-piperidylmethyl)thiazolo[5,4-d]pyrimidine-2-carboxamide], for which the inhibition at 1 µM on MAPK8 turned out to be 5%; on BMX, 0%; on STK11, 21%; on PTK6 it was 0%; on BTK it was 6%; at PIM2, 7%. The inhibition at 1 µM was 0% on PAK1, 18% at BLK, 28% on STK10 and 12% at LCK.

As for `CN(C)CCCNC(=O)c1nc2c(N3CCc4cc(F)ccc43)ncnc2s1` [Example 64, N-[3-(dimethylamino)propyl]-7-(5-fluoroindolin-1-yl)thiazolo[5,4-d]pyrimidine-2-carboxamide], the inhibition at 1 µM at MAPK8 turned out to be 0%; on BMX, 6%; at STK11, 10%; on PTK6 it was 4%; at BTK, 0%; on PIM2, 42%. Further, the inhibition at 1 µM came to 0% on PAK1, 1% on BLK, 81% on STK10 and 0% on LCK.
